What was measured:
[1] = target: Prolyl 4-hydroxylase (Gallus gallus); assay: ChEBML_157453
From the text: Inhibition of prolyl 4-hydroxylase activity by an indirect assay

[2] = target: prolyl 4-hydroxylase (Gallus gallus); assay: Compound was evaluated for inhibition of Prolyl 4-hydroxylase activity in cultured embryonic chick tendon cells

Structure (SMILES) | IC50 [1] | IC50 [2]
O=C(Nc1ccc(C(=O)O)nc1)c1ccc(F)cc1 | 51.2 µM | 
O=C(Nc1ccc([N+](=O)[O-])cc1)c1ccc(C(=O)O)nc1 | 44 µM | 
COc1cc(NC(=O)c2ccc(C(=O)O)nc2)cc(OC)c1OC | 26.5 µM | 
O=C(Nc1ccc(C(=O)O)nc1)c1ccccc1 | 25.6 µM | 
O=C(O)c1ccc(OCc2ccccc2)cn1 | 39 µM | 
O=C(O)c1ccc(NCc2ccc(F)cc2)cn1 | 31 µM | 80 µM
O=C(O)c1ccc(/C=C/c2ccc(Cl)cc2)cn1 | 150 µM | 
O=C(Nc1cccc(Cl)c1)c1ccc(C(=O)O)nc1 | 32.2 µM | 
CCOc1ccccc1NC(=O)c1ccc(C(=O)O)nc1 | 32.9 µM | 
O=C(Nc1ccccc1)c1ccc(C(=O)O)nc1 | 26.5 µM | 
O=C(O)c1ccc(NC(=O)c2ccccc2F)cn1 | 33.8 µM | 

Compounds with a lower IC50 [1], results first:

IC50 [1] | IC50 [2] | Structure (SMILES)
22.5 µM |  | O=C(Nc1ccc(C(=O)O)nc1)c1ccc(Cl)cc1
21.1 µM |  | COc1ccc(NC(=O)c2ccc(C(=O)O)nc2)cc1
17.4 µM |  | O=C(Nc1ccc(Cl)cc1)c1ccc(C(=O)O)nc1
16.6 µM |  | COc1ccc(NC(=O)c2ccc(C(=O)O)nc2)c(OC)c1
16.5 µM |  | Cc1ccc(C(=O)Nc2ccc(C(=O)O)nc2)cc1
16.3 µM |  | O=C(Nc1ccccc1Cl)c1ccc(C(=O)O)nc1
16.1 µM |  | O=C(Nc1ccc(F)cc1)c1ccc(C(=O)O)nc1
14.8 µM |  | COc1ccccc1NC(=O)c1ccc(C(=O)O)nc1
11.3 µM |  | CN(C)c1ccc(C(=O)Nc2ccc(C(=O)O)nc2)cc1
11.2 µM |  | CCOc1ccc(C(=O)Nc2ccc(C(=O)O)nc2)cc1
11 µM |  | O=C(Nc1ccccc1F)c1ccc(C(=O)O)nc1
8.3 µM |  | Cc1ccc(NC(=O)c2ccc(C(=O)O)nc2)cc1
5 µM |  | CCOc1ccc(NC(=O)c2ccc(C(=O)O)nc2)cc1
4.1 µM |  | CN(C)c1ccc(NC(=O)c2ccc(C(=O)O)nc2)cc1

From BindingDB's records for doi:10.1021/jm00083a002 (Ici Pharmaceuticals Group, 1992)
